# Measured values from ChEMBL document CHEMBL1201862, “PubChem BioAssay data set” (2004).
#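 Five compound concentrations were applied to cells in 96-well plates for 48 hours; endpoints were derived by simple linear interpolation of the resulting dose-response curve. GI50 marks 50% less growth.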 Activity calls are given as the source filed them. Cut-off read from the data, not from the text of the source: active = GI50 up to about 1.1 µM and inactive = higher.
# How the values were obtained:
# Test in all cases: NCI-60 cell line screen, 48 h
# SK-MEL-5 = tested on: SK-MEL-5
# UACC-62 = tested on: UACC-62
# CCRF-CEM = tested on: CCRF-CEM
# 786-0 = tested on: 786-0
# SF-539 = tested on: SF-539
# HOP-62 = tested on: HOP-62
# HCT-116 = tested on: HCT-116
# RPMI-8226 = tested on: RPMI-8226
# ACHN = tested on: ACHN
# UACC-257 = tested on: UACC-257
# A549 = tested on: A549
# Malme-3M = tested on: Malme-3M
# COLO 205 = tested on: COLO 205
# OVCAR-5 = tested on: OVCAR-5
# NCI-H522 = tested on: NCI-H522
# KM12 = tested on: KM12
# T47D = tested on: T47D
# SK-OV-3 = tested on: SK-OV-3
# SNB-75 = tested on: SNB-75
# MOLT-4 = tested on: MOLT-4
# IGROV-1 = tested on: IGROV-1
# SW-620 = tested on: SW-620
# DU-145 = tested on: DU-145
# HCT-15 = tested on: HCT-15
# U-251 = tested on: U-251
# SNB-19 = tested on: SNB-19
# OVCAR-4 = tested on: OVCAR-4
# SF-295 = tested on: SF-295
# HL-60 = tested on: HL-60
# NCI-H23 = tested on: NCI-H23
# BT-549 = tested on: BT-549
# OVCAR-3 = tested on: OVCAR-3
# Hs-578T = tested on: Hs-578T
# NCI/ADR-RES = tested on: NCI/ADR-RES
# A498 = tested on: A498
# UO-31 = tested on: UO-31
# LOX IMVI = tested on: LOX IMVI
# SK-MEL-2 = tested on: SK-MEL-2
# MDA-N = tested on: MDA-N
# MDA-MB-435 = tested on: MDA-MB-435
# SR = tested on: SR
# SK-MEL-28 = tested on: SK-MEL-28
# HT-29 = tested on: HT-29
# OVCAR-8 = tested on: OVCAR-8
# NCI-H460 = tested on: NCI-H460
# MCF7 = tested on: MCF7
# M14 = tested on: M14
# SN12C = tested on: SN12C
# RXF 393 = tested on: RXF 393
# NCI-H226 = tested on: NCI-H226
# HOP-92 = tested on: HOP-92
# TK-10 = tested on: TK-10
# K562 = tested on: K562
# SF-268 = tested on: SF-268
# MDA-MB-231 = tested on: MDA-MB-231
# PC-3 = tested on: PC-3
# EKVX = tested on: EKVX
# CAKI-1 = tested on: CAKI-1
compound,measurement,setting,value
O=C1NC(=O)C(C(CC(=O)c2ccc([N+](=O)[O-])cc2)c2ccccc2)C(=O)N1 (stereo not drawn),GI50,SK-MEL-5,41.6 µM (inactive)
same,GI50,UACC-62,77.1 µM (inactive)
same,GI50,CCRF-CEM,35.2 µM (inactive)
same,GI50,786-0,> 100 µM (inactive)
same,GI50,SF-539,> 100 µM (inactive)
same,GI50,HOP-62,> 100 µM (inactive)
same,GI50,HCT-116,14.8 µM (inactive)
same,GI50,RPMI-8226,31.3 µM (inactive)
same,GI50,ACHN,> 100 µM (inactive)
same,GI50,UACC-257,> 100 µM (inactive)
same,GI50,A549,97.3 µM (inactive)
same,GI50,Malme-3M,0.0334 µM (active)
same,GI50,COLO 205,> 100 µM (inactive)
same,GI50,OVCAR-5,> 100 µM (inactive)
same,GI50,NCI-H522,47.2 µM (inactive)
same,GI50,KM12,14.8 µM (inactive)
same,GI50,T47D,20.5 µM (inactive)
same,GI50,SK-OV-3,> 100 µM (inactive)
same,GI50,SNB-75,> 100 µM (inactive)
same,GI50,MOLT-4,73.3 µM (inactive)
same,GI50,IGROV-1,> 100 µM (inactive)
same,GI50,SW-620,29.2 µM (inactive)
same,GI50,DU-145,> 100 µM (inactive)
same,GI50,HCT-15,> 100 µM
same,GI50,U-251,49.4 µM (inactive)
same,GI50,SNB-19,24.8 µM (inactive)
same,GI50,OVCAR-4,> 100 µM (inactive)
same,GI50,SF-295,4.79 µM (inactive)
same,GI50,HL-60,> 100 µM (inactive)
same,GI50,NCI-H23,20.7 µM (inactive)
same,GI50,BT-549,> 100 µM (inactive)
same,GI50,OVCAR-3,36.7 µM (inactive)
same,GI50,Hs-578T,10.9 µM (inactive)
same,GI50,NCI/ADR-RES,> 100 µM (inactive)
same,GI50,A498,> 100 µM (inactive)
same,GI50,UO-31,> 100 µM (inactive)
same,GI50,LOX IMVI,20 µM (inactive)
same,GI50,SK-MEL-2,> 100 µM (inactive)
same,GI50,MDA-N,27.2 µM (inactive)
same,GI50,MDA-MB-435,49.8 µM (inactive)
same,GI50,SR,40 µM (inactive)
same,GI50,SK-MEL-28,> 100 µM (inactive)
same,GI50,HT-29,52.2 µM (inactive)
same,GI50,OVCAR-8,> 100 µM (inactive)
same,GI50,NCI-H460,> 100 µM (inactive)
same,GI50,MCF7,13.5 µM (inactive)
same,GI50,M14,> 100 µM (inactive)
same,GI50,SN12C,> 100 µM (inactive)
same,GI50,RXF 393,2.77 µM (inactive)
same,GI50,NCI-H226,> 100 µM (inactive)
same,GI50,HOP-92,> 100 µM (inactive)
same,GI50,TK-10,0.0471 µM (active)
same,GI50,K562,60.3 µM (inactive)
same,GI50,SF-268,19.9 µM (inactive)
same,GI50,MDA-MB-231,> 100 µM (inactive)
same,GI50,PC-3,55.8 µM (inactive)
CSc1ccc2c(c1)N(CCCN(C)C)c1ccccc1S2,GI50,SK-MEL-5,11.4 µM (inactive)
same,GI50,UACC-62,10.4 µM (inactive)
same,GI50,CCRF-CEM,5.89 µM (inactive)
same,GI50,786-0,13.7 µM (inactive)
same,GI50,SF-539,17.3 µM (inactive)
same,GI50,HOP-62,14 µM (inactive)
same,GI50,HCT-116,12.7 µM (inactive)
same,GI50,RPMI-8226,12.2 µM (inactive)
same,GI50,ACHN,11.7 µM (inactive)
same,GI50,UACC-257,7.16 µM (inactive)
same,GI50,A549,15.4 µM (inactive)
same,GI50,Malme-3M,9.16 µM (inactive)
same,GI50,COLO 205,12.7 µM (inactive)
same,GI50,EKVX,18.6 µM (inactive)
same,GI50,OVCAR-5,15.3 µM (inactive)
same,GI50,NCI-H522,12.8 µM (inactive)
same,GI50,KM12,11.8 µM (inactive)
same,GI50,T47D,10.4 µM (inactive)
same,GI50,SK-OV-3,15.1 µM (inactive)
same,GI50,SNB-75,6.97 µM (inactive)
same,GI50,MOLT-4,5.81 µM (inactive)
same,GI50,IGROV-1,13.2 µM (inactive)
same,GI50,SW-620,15.2 µM (inactive)
same,GI50,DU-145,15.6 µM (inactive)
same,GI50,HCT-15,15 µM
same,GI50,U-251,13.5 µM (inactive)
same,GI50,SNB-19,16.2 µM (inactive)
same,GI50,OVCAR-4,11.5 µM (inactive)
same,GI50,SF-295,12.8 µM (inactive)
same,GI50,HL-60,12 µM (inactive)
same,GI50,NCI-H23,16.4 µM (inactive)
same,GI50,BT-549,15.4 µM (inactive)
same,GI50,OVCAR-3,12.8 µM (inactive)
same,GI50,Hs-578T,11 µM (inactive)
same,GI50,NCI/ADR-RES,12.1 µM (inactive)
same,GI50,A498,11.2 µM (inactive)
same,GI50,LOX IMVI,11.6 µM (inactive)
same,GI50,SK-MEL-2,15.6 µM (inactive)
same,GI50,MDA-N,10.7 µM (inactive)
same,GI50,MDA-MB-435,4.67 µM (inactive)
same,GI50,SR,6.19 µM (inactive)
same,GI50,SK-MEL-28,2.29 µM (inactive)
same,GI50,HT-29,6.78 µM (inactive)
same,GI50,OVCAR-8,17.2 µM (inactive)
same,GI50,NCI-H460,10.8 µM (inactive)
same,GI50,CAKI-1,8.67 µM (inactive)
same,GI50,MCF7,11.9 µM (inactive)
same,GI50,M14,5.19 µM (inactive)
same,GI50,SN12C,13.1 µM (inactive)
same,GI50,RXF 393,7.55 µM (inactive)
same,GI50,NCI-H226,19.8 µM (inactive)
same,GI50,HOP-92,11.7 µM (inactive)
same,GI50,TK-10,14.9 µM (inactive)
same,GI50,K562,4.28 µM (inactive)
same,GI50,SF-268,13.6 µM (inactive)
same,GI50,MDA-MB-231,12.7 µM (inactive)
same,GI50,PC-3,11.1 µM (inactive)
